Assay results reported in patent EP4108244A1, “SS-LACTAM ANTIBIOTIC WITH SIGNIFICANT ACTIVITY AGAINST CANCER E.G. COLON MALIGNANCIES” (priority 2021, dated 2022).

Columns and labels:
[1] = Stability in media, LC-MS/MS; format: physicochemical; details: antibiotic alone (CFP 50 µg/mL, CFT 100 µg/mL)
Procedure: B) CFT (100 µg/ml) ± 5-FU (8 µM and 16 µM). P value (a) (between antibiotic alone and 5-FU (8 µM)); P value (b) (between antibiotic alone and 5-FU (16 µM)), n = 3.

HCT-116 cells = assay: Xenograft model of colon cancer cells, tumor growth; format: in vivo, NOD/SCID mice
Procedure: Twelve NOD/SCID mice were randomly distributed into two groups (6 mice/group). HCT-116 colon cancer cells (3.5 million) suspended in sterile physiological solution (0.9% NaCl) were injected subcutaneously into the flank of 4 to 6-week old mice. Animals were kept in a light- and temperature-controlled environment and provided with food and water ad libitum. The tumor size was monitored and determined three times per week using a sterile Vernier caliper. Tumor volume was calculated by the following formula: Volume=π/6^∗(length × width × height). […] Growth delay was assessed by comparing the size of tumors in treated animals to those of control animals. Ethical approval was obtained before the beginning of the experiments.

[2] = Body weight and survival in the xenograft model; format: in vivo, NOD/SCID mice
Procedure: Twelve NOD/SCID mice were randomly distributed into two groups (6 mice/group). HCT-116 colon cancer cells (3.5 million) suspended in sterile physiological solution (0.9% NaCl) were injected subcutaneously into the flank of 4 to 6-week old mice. Animals were kept in a light- and temperature-controlled environment and provided with food and water ad libitum. The tumor size was monitored and determined three times per week using a sterile Vernier caliper. Tumor volume was calculated by the following formula: Volume=π/6^∗(length × width × height). Once the tumor size reached seven mm^3, mice were treated three times per week for 21 days with intraperitoneal injections of vehicle (control group) or ceftazidime (10 mg/mouse). Growth delay was assessed by comparing the size of tumors in treated animals to those of control animals. Ethical approval was obtained before the beginning of the experiments.

[3] = three weeks post-treatment, 10mg/mouse intraperitoneal three times per week

## CC(C)(O/N=C(\C(=O)N[C@@H]1C(=O)N2C(C(=O)[O-])=C(C[n+]3ccccc3)CS[C@H]12)c1csc(N)n1)C(=O)O [CFT, (6R,7R)-7-[[(2Z)-2-(2-amino-1,3-thiazol-4-yl)-2-(2-carboxypropan-2-yloxyimino)acetyl]amino]-8-oxo-3-(pyridin-1-ium-1-ylmethyl)-5-thia-1-azabicyclo[4.2.0]oct-2-ene-2-carboxylate]
[1]; 2h in media
  Stability test, level in media: 104.4 ± 2.5
[1]; 8h in media
  Stability test, level in media: 103.4 ± 10.8
HCT-116 cells; mice exposed for three weeks, then treatment stopped
  tumor growth after stopping treatment (in words): the tumor did not grow further
HCT-116 cells; [3]
  inhibition of tumor volume vs. control group: 95%
  tumor size (volume of xenografts): 45.3 mm^3
HCT-116 cells; treatment started when tumor volume was around 990 mm^3, vs. control untreated mice
  inhibition of tumor volume, already established tumors: around 50%
[2]; after three weeks of treatment
  weight lost: 6.8%
[2]; after three weeks of treatment, 10 mg/mouse
  body weight: 19.8 g
[2]; day of the first treatment
  average weight of the mice: 21.3 g
[2]; three weeks of treatment
  mortality (in words): none of the animals died
[2]; vs. control animals, three weeks
  protective effect on body weight: 58%
